Experimental data from ChEMBL document CHEMBL1201862, “PubChem BioAssay data set” (2004).
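Protocol summary: plate cells (96-well), add compound at 5 concentrations, incubate 48 h, interpolate endpoints linearly. Abbreviation: GI50, concentration required for 50% inhibition of growth.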 Activity calls are given as the source filed them. No stated cut-off is given here; in the data, active = GI50 up to about 1.1 µM and inactive = higher. Where a SMILES comes first, the peptide text is derived from it.

Tests used:
Test in all cases: NCI anticancer screen, dose series, 48 h
[1] = system: UACC-257
[2] = system: SF-268
[3] = system: CCRF-CEM
[4] = system: HCC 2998
[5] = system: SK-MEL-28
[6] = system: OVCAR-4
[7] = system: SF-295
[8] = system: NCI-H460
[9] = system: TK-10
[10] = system: MOLT-4
[11] = system: HCT-15
[12] = system: UACC-62
[13] = system: HOP-18
[14] = system: HT-29
[15] = system: LOX IMVI
[16] = system: U-251
[17] = system: K562
[18] = system: SNB-78

SMILES	GI50 [1]	GI50 [2]	GI50 [3]	GI50 [4]	GI50 [5]	GI50 [6]	GI50 [7]	GI50 [8]	GI50 [9]	GI50 [10]	GI50 [11] [µM]	GI50 [12]	GI50 [13]	GI50 [14]	GI50 [15]	GI50 [16]	GI50 [17]	GI50 [18]
CCC1=C(C)/C(=C/c2[nH]c(CBr)c(CC)c2C)N=C1CBr	> 10 µM (inactive)	13.7 µM (inactive)	2.51 µM (inactive)	12.2 µM (inactive)	15.6 µM (inactive)	13 µM (inactive)	20.9 µM (inactive)	19 µM (inactive)	18.4 µM (inactive)	5.81 µM (inactive)	8.71	6.05 µM (inactive)	11 µM (inactive)	12.5 µM (inactive)	> 100 µM (inactive)	11.3 µM (inactive)	8.22 µM (inactive)	
N#CNCC(COCc1ccccc1)c1ccccc1 (stereo unspecified)		> 100 µM (inactive)	> 100 µM (inactive)	> 100 µM (inactive)	> 100 µM (inactive)	> 100 µM (inactive)		> 100 µM (inactive)	> 100 µM (inactive)	71.1 µM (inactive)	86.1	> 100 µM (inactive)	> 100 µM (inactive)		> 100 µM (inactive)	> 100 µM (inactive)	40.3 µM (inactive)	
CC1=C(C(=O)Nc2ccccc2)C(c2ccccc2Cl)C(C(=O)Nc2ccccc2)=C(C)N1	19.4 µM (inactive)	24.4 µM (inactive)	32 µM (inactive)	21.2 µM (inactive)	27.1 µM (inactive)	36.4 µM (inactive)	25.4 µM (inactive)		38.7 µM (inactive)	17.4 µM (inactive)	20	13.6 µM (inactive)	21.9 µM (inactive)	21 µM (inactive)	18.6 µM (inactive)	19.4 µM (inactive)	38.6 µM (inactive)	
CC1NC(=O)CNC(=O)CNC(=O)C(Cc2ccc(O)cc2)NC(=O)C(C(C)C)NC(=O)C(C)NC1=O (stereo unspecified) (cyclo(GGAAVY); configuration not given here)	> 100 µM (inactive)	> 100 µM (inactive)	> 100 µM (inactive)	> 100 µM (inactive)	> 100 µM (inactive)	10.7 µM (inactive)	> 100 µM (inactive)	> 100 µM (inactive)		> 100 µM (inactive)	> 100	> 100 µM (inactive)	30.1 µM (inactive)	> 100 µM (inactive)	> 100 µM (inactive)	> 100 µM (inactive)		
C[Si](C)(C)[C@@]1([Se]c2ccccc2)CC[C@@H]1C(=O)c1ccccc1	40.6 µM (inactive)	28.8 µM (inactive)	27.7 µM (inactive)	32.6 µM (inactive)	55.2 µM (inactive)	67.9 µM (inactive)	51.3 µM (inactive)	98.9 µM (inactive)	> 100 µM (inactive)	21.3 µM (inactive)	45.8	71.4 µM (inactive)		42.3 µM (inactive)	35.9 µM (inactive)	83.8 µM (inactive)	34.5 µM (inactive)	> 100 µM (inactive)
C/C=C/CC(S(=O)(=O)c1ccccc1)S(=O)(=O)c1ccccc1	> 100 µM (inactive)		87.1 µM (inactive)	> 100 µM (inactive)	> 100 µM (inactive)	> 100 µM (inactive)	> 100 µM (inactive)	> 100 µM (inactive)	> 100 µM (inactive)	> 100 µM (inactive)	60	36.1 µM (inactive)	> 100 µM (inactive)	> 100 µM (inactive)	> 100 µM (inactive)	33.3 µM (inactive)	> 100 µM (inactive)	
CN(C)c1cccc(OC(=O)NCCCl)c1	> 100 µM (inactive)	> 100 µM (inactive)	68.2 µM (inactive)	> 100 µM (inactive)	> 100 µM (inactive)	> 100 µM (inactive)	> 100 µM (inactive)	> 100 µM (inactive)		> 100 µM (inactive)	> 100	> 100 µM (inactive)	> 100 µM (inactive)	> 100 µM (inactive)	> 100 µM (inactive)	> 100 µM (inactive)	> 100 µM (inactive)	
